Tests used:
[1] = tested on: PC-3 prostate cancer cells; assay: PC3 cell viability and proliferation assay (MTS); type: cell-based; details: Homo sapiens, PC-3, 72 hours incubation, mean of three independent experiments, read-out: PC3 GI50 D3
Experimental: PC-3 prostate cancer cells were obtained from ATCC, and maintained in F-12K medium containing 7% FBS and 1% penicillin/streptomycin. Cells were incubated at 37° C. in a humidified atmosphere containing 5% CO2.
(§1) Cell viability was assayed using the MTS technique in 96-well culture plates (CellTiter 96® Aqueous Non-Radioactive Cell Proliferation Assay, Promega) according to the manufacturer's instructions. MTS (3-(4,5-dimethyl-thiazol-2-yl)-5-(3-carboxymethoxyphenyl)-2-(4-sulfophenyl)-2H-tetrazolium) is a MTT-derived tetrazolium that is reduced in metabolically active cells into a soluble, cell-permeant formazan. The amount of formazan, detected by its absorbance at 492 nm is proportional to the number of living, metabolically active cells.
(§2) 2×10^3 PC3 cells were seeded per well. 24 hours later, the medium was changed and the cells treated in triplicate with the following concentrations of each compound: 10 μM-3.33 μM-1.11 μM-370 nM-123 nM-41 nM-14 nM and 5 nM. The compounds were diluted in 100% DMSO, whose final concentration on cells was kept at 0.5%.
(§3) Cells were incubated with the compounds for 72 hours, and their viability then assayed by the addition of MTS for 2 hours. Absorbance at 492 nm was measured directly from the 96-well culture plates. GI50 (Growth Inhibition 50) concentrations for each compound were calculated using a sigmoidal variable slope fit (Prism 4.0, Graphpad Softwares). Values represent mean of three independent experiments.

[2] = tested on: HCT116 colon cancer cells; assay: HCT116 cell viability and proliferation assay (MTS); type: cell-based; details: Homo sapiens, HCT-116, 72 hours incubation, mean of three independent experiments, read-out: HCT116 GI50 D3
Experimental: HCT116 colon cancer cells were obtained from ATCC (American Type Culture Collection), and maintained in Mc Coy's 5A medium containing 10% FBS, 3 mM glutamine and 1% penicillin/streptomycin. Cells were incubated at 37° C. in a humidified atmosphere containing 5% CO2.
as §1, with “(3-(4,5-dimethyl-thiazol-2-yl)-5-(3-carboxymethoxyphenyl)-2-(4-sulfophenyl)-2H-tetra-zolium)” for “(3-(4,5-dimethyl-thiazol-2-yl)-5-(3-carboxymethoxyphenyl)-2-(4-sulfophenyl)-2H-tetrazolium)”
as §2, with “10^3 HCT116” for “2×10^3 PC3”
as §3, with “G150” for “GI50”

USP7 = target: T1, USP7 (Homo sapiens, UniProt Q93009); assay: USP7 activity assay; type: biochemical; details: 400 nM Ub-AMC, 152 pM enzyme; pre-incubated 30 minutes at 25° C., 60 minutes at 37° C.; sigmoidal fit; read-out: USP 7
T1 construct: His tag (pFastBac-HT vector) (N); made in house; host or cells: Sf9 or High Five insect cells (baculovirus)
T1 sequence (Q93009 whole entry): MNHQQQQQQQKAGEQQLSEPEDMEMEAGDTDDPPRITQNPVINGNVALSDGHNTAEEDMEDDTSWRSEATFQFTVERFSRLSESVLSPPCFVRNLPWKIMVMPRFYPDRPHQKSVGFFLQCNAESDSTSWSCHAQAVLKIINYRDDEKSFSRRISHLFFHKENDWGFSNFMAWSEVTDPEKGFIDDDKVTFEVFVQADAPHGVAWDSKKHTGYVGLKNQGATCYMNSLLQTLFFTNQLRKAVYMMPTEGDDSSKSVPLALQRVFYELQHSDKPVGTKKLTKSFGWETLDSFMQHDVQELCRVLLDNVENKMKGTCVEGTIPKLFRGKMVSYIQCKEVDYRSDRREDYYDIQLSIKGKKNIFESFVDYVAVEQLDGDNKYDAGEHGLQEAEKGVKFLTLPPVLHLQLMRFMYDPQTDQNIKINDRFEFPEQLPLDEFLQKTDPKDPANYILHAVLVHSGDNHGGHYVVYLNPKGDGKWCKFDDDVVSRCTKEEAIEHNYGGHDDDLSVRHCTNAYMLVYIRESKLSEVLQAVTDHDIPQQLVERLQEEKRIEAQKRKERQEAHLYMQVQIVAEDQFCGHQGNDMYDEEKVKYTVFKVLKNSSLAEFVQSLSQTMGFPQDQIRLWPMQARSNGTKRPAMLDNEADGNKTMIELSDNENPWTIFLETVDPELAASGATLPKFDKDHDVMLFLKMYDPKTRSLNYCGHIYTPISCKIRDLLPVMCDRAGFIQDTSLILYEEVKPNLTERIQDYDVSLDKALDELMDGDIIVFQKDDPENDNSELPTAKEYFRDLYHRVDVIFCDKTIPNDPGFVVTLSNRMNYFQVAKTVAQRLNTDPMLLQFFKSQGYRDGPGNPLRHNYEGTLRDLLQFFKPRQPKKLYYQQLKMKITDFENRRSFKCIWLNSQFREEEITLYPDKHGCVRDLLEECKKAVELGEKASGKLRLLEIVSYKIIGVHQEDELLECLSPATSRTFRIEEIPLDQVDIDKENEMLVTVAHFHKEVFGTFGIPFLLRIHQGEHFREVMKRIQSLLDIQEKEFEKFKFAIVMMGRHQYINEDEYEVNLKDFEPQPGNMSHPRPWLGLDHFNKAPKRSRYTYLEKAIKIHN
From the text: The cDNA encoding USP7 was obtained by PCR amplification from placenta mRNA. USP7 cDNA was subcloned by PCR into a baculovirus expression vector (pFastBac-HT; Invitrogen). A cDNA encoding a mutated USP7 was generated by mutagenic PCR. The corresponding protein encodes a cysteine to alanine substitution at residue 223. The sequences were ascertained by sequencing of the entire open reading frame. Bacmids encoding USP7 were generated following DH10bac transposition. The corresponding bacmids were transfected into insect cells (Sf9). Viruses were recovered from culture supernatant and amplified twice. Insect cells (Sf9 or High Five; lnvitrogen) were infected for 72 hours. Total cell lysates were harvested and lyzed in lysis buffer (Tris HCl 50 mM pH 7.6; 0.75 % NP40; 500 mM NaCl; 10% glycerol; 1 mM DTT; 10 mM imidazole; Protease Inhibitor Cocktail; AEBSF 20 μg.ml^−1; Aprotinin 10 μg.ml^−1). Proteins were affinity purified on metal affinity resins (Talon Metal affinity resin; BD Biosciences). Bound materials were extensively washed in wash buffer (50 mM Sodium Phosphate pH 7.0; 300 mM NaCl; 10 mM imidazole; 0.5% Triton X-100; 10% glycerol) and eluted from the resin in 250 mM imidazole-containing wash buffer. Proteins were dialyzed in dialysis buffer (Tris HCl pH 7.6 20 mM; NaCl 200 mM; DTT 1 mM; EDTA 1 mM; 10% Glycerol). Proteins purifications were analyzed on 4-12% NuPAGE (Invitrogen).
USP7 was diluted in USP buffer (50 mM Tris HCl; 0.5 mM EDTA; 5 mM DTT; 0.01 % Triton X-100; Bovine Serum Albumin 0.05 mg.ml^−1 pH 7.6). Compounds stocks (100 mM) were stored at −20° C. in DMSO. Compounds were tested at the following final concentrations: 100 μM; 33.3 μM; 11.1 μM; 3.7 μM; 1.23 μM; 412 nM; 137 nM; 45.7 nM; 15.2 nM; 5 nM.
(§4) Reactions were performed as duplicates in Black LJL 96 well plates (HE microplates; Molecular Devices; 20 μl final reaction volume). The substrate concentration for USP7 was 400 nM Ub-AMC (Chem. Biol., 2003, 10, p. 837-846) (Boston Biochem). The concentrations of the enzyme (USP7) in specificity assays was 152 pM. The concentrations were determined in order to perform specificity assays under initial velocities at fixed substrate concentration. Compounds were pre-incubated with enzymes for 30 minutes at 25° C. Reactions were initiated by addition of substrate to the plates containing the enzymes (+/− compounds) diluted in assay buffer. Reactions were incubated for 60 minutes at 37° C. Reactions were stopped by adding acetic acid (100 mM final). Readings were performed on a Pherastar Fluorescent Reader (BMG). λ Emission 380 nm; λ Excitation=460 nm. Data (mean values +/− standard deviation) were analyzed as % of control (no compound) and plotted as percentage versus the Log of the compound concentration using GraphPad (Prism). Data were fitted to a sigmoidal model (variable slope).

USP5 = target: T2, USP5 (Homo sapiens, UniProt P45974); assay: USP5 activity assay; type: biochemical; details: 400 nM Ub-AMC, 300 pM enzyme; pre-incubated 30 minutes at 25° C., 60 minutes at 37° C.; sigmoidal fit; read-out: USP 5
T2 sequence (P45974 1-858): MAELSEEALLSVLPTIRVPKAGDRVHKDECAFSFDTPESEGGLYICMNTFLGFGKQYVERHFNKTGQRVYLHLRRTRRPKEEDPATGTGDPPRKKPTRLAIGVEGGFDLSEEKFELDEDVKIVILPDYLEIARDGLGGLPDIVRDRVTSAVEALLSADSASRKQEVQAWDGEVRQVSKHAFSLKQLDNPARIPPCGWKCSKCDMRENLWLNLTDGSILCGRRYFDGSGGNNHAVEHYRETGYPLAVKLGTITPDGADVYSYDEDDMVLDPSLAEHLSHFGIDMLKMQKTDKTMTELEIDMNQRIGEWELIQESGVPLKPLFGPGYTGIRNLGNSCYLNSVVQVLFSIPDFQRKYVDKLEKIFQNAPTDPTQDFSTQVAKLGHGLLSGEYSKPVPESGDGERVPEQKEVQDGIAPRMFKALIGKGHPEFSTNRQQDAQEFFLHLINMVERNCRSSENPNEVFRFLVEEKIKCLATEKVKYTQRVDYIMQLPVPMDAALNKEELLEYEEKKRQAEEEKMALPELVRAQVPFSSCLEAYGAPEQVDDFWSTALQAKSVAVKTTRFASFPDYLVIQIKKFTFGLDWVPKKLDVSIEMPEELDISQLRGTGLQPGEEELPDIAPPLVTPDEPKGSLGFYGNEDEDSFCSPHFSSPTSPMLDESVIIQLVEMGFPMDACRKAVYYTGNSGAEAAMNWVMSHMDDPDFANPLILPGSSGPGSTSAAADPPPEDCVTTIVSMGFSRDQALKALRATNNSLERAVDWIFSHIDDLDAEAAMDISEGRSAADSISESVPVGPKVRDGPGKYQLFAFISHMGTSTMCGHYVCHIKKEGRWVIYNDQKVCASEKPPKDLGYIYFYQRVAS
Experimental: USP5 was diluted in USP buffer (50 mM Tris HCl; 0.5 mM EDTA; 5 mM DTT; 0.01% Triton X-100; Bovine Serum Albumin 0.05 mg.ml^−1 pH 7.6). Compounds stocks (100 mM) were stored at -20° C. in DMSO.
as §4, with “USP5” for “USP7”, “Ub-AMC” for “Ub-AMC (Chem. Biol., 2003, 10, p. 837-846)”, “(USP5)” for “(USP7)”, “300” for “152”

SMILES	GI50 [1]	GI50 [2]	IC50 (USP7)	IC50 (USP5)
Cc1nnc2nc3c(nn12)-c1ccccc1C3=O [Example 1b/B, 3-Methyl-1,2,3a,4,10-pentaaza-cyclopenta[b]fluoren-9-one]	334 nM	84 nM	–	–
Nc1nnc2nc3c(nn12)C(=O)c1ccccc1-3 [Example 1c/A, 1-Amino-2,3,4,10,10a-pentaaza-cyclopenta[b]fluoren-9-one]	–	8500 nM	–	–
CCc1nnc2nc3c(nn12)C(=O)c1ccccc1-3 [Example 1d/A, 1-Ethyl-2,3,4,10,10a-pentaaza-cyclopenta[b]fluoren-9-one]	5400 nM	1400 nM	–	–
CCc1nnc2nc3c(nn12)-c1ccccc1C3=O [Example 1d/B, 3-Ethyl-1,2,3a,4,10-pentaaza-cyclopenta[b]fluoren-9-one]	256 nM	59 nM	–	–
CCCc1nnc2nc3c(nn12)C(=O)c1ccccc1-3 [Example 1e/A, 1-Propyl-2,3,4,10,10a-pentaaza-cyclopenta[b]fluoren-9-one]	4200 nM	3100 nM	> 100000 nM	–
CCCc1nnc2nc3c(nn12)-c1ccccc1C3=O [Example 1e/B, 3-Propyl-1,2,3a,4,10-pentaaza-cyclopenta[b]fluoren-9-one]	175 nM	67 nM	–	–
CCCCc1nnc2nc3c(nn12)C(=O)c1ccccc1-3 [Example 1f/A, 1-Butyl-2,3,4,10,10a-pentaaza-cyclopenta[b]fluoren-9-one]	3800 nM	1360 nM	–	–
CCCCc1nnc2nc3c(nn12)-c1ccccc1C3=O [Example 1f/B, 3-Butyl-1,2,3a,4,10-pentaaza-cyclopenta[b]fluoren-9-one]	96 nM	40 nM	–	–
CC(C)Cc1nnc2nc3c(nn12)C(=O)c1ccccc1-3 [Example 1g/A, 1-Isobutyl-2,3,4,10,10a-pentaaza-cyclopenta[b]fluoren-9-one]	4000 nM	3000 nM	> 100000 nM	–
CC(C)Cc1nnc2nc3c(nn12)-c1ccccc1C3=O [Example 1g/B, 3-Isobutyl-1,2,3a,4,10-pentaaza-cyclopenta[b]fluoren-9-one]	162 nM	53 nM	–	–
O=C1c2ccccc2-c2nn3c(CO)nnc3nc21 [Example 1h/B, 3-Hydroxymethyl-1,2,3a,4,10-pentaaza-cyclopenta[b]fluoren-9-one]	1440 nM	323 nM	–	–
COCc1nnc2nc3c(nn12)C(=O)c1ccccc1-3 [Example 1i/A, 1-Methoxymethyl-2,3,4,10,10a-pentaaza-cyclopenta[b]fluoren-9-one]	1750 nM	1280 nM	> 100000 nM	–
COCc1nnc2nc3c(nn12)-c1ccccc1C3=O [Example 1i/B, 3-Methoxymethyl-1,2,3a,4,10-pentaaza-cyclopenta[b]fluoren-9-one]	238 nM	65 nM	–	–
O=C1c2ccccc2-c2nc3nnc(C4CC4)n3nc21 [Example 1j/A, 1-Cyclopropyl-2,3,4,10,10a-pentaaza-cyclopenta[b]fluoren-9-one]	–	–	–	3100 nM
Cc1nnc2nc3c(nn12)-c1ccc(Cl)cc1C3=O [Example 3/B, 7-Chloro-3-methyl-1,2,3a,4,10-pentaaza-cyclopenta[b]fluoren-9-one]	286 nM	98 nM	–	–

From patent publication US20090181972A1, “Novel Inhibitors of Cysteine Proteases, the Pharmaceutical Compositions Thereof and their Therapeutic Applications” (priority 2005, published 2009)
